Test results as given in PMC7316778 (Nature Communications, 2020).
Where “and” joins values, the source holds several entries; their conditions need not be identical. Equal entries are not always repeated. Where two headings read alike, the source gives them in different places.

Columns and labels:
LCK = LCK (Homo sapiens, UniProt P06239); experiment: SelectScreen kinase assay
Procedure: (§1) Selectivity profiling assays were performed by the Invitrogen SelectScreen™ Services. […] The concentration of ATP was selected to be equal to the KM, unless indicated otherwise.

CDK5 (Inactive) = CDK5 (Inactive) (Homo sapiens, UniProt Q00535); experiment: SelectScreen kinase assay
Procedure: as §1

AMPK A2/B1/G1 = AMPK A2/B1/G1 (Homo sapiens, UniProt P54646); experiment: SelectScreen kinase assay
Procedure: as §1

PAK1 = PAK1 (Homo sapiens, UniProt Q13153); experiment: SelectScreen kinase assay
Procedure: as §1

MAP3K9 (MLK1) = MAP3K9 (MLK1) (Homo sapiens, UniProt P80192); experiment: SelectScreen kinase assay
Procedure: as §1

CDC42 BPB (MRCKB) = CDC42 BPB (MRCKB) (Homo sapiens, UniProt Q9Y5S2); experiment: SelectScreen kinase assay; details: 1 h, 1 μM WEL028, 1 h preincubation
Procedure: as §1

FES (FPS) = FES (FPS) (Homo sapiens, UniProt P07332); experiment: SelectScreen kinase assay
Procedure: as §1

NEK8 = NEK8 (Homo sapiens, UniProt Q86SG6); experiment: SelectScreen kinase assay
Procedure: as §1

CLK1 = CLK1 (Homo sapiens, UniProt P49759); experiment: SelectScreen kinase assay
Procedure: as §1

MST4 = MST4 (Homo sapiens, UniProt Q9P289); experiment: SelectScreen kinase assay
Procedure: as §1

STK32B (YANK2) = STK32B (YANK2) (Homo sapiens, UniProt Q9NY57); experiment: SelectScreen kinase assay
Procedure: as §1

PKN2 (PRK2) = PKN2 (PRK2) (Homo sapiens, UniProt Q16513); experiment: SelectScreen kinase assay
Procedure: as §1

ACVRL1 (ALK1) = ACVRL1 (ALK1) (Homo sapiens, UniProt P37023); experiment: SelectScreen kinase assay
Procedure: as §1

STK25 (YSK1) = STK25 (YSK1) (Homo sapiens, UniProt O00506); experiment: SelectScreen kinase assay
Procedure: as §1

HCK = HCK (Homo sapiens, UniProt P08631); experiment: SelectScreen kinase assay
Procedure: as §1

FES^S700C HL-60 cells = experiment: CD11b surface expression, neutrophil differentiation; assay type: cell-based, human; details: 100 nM; Supplementary Figure 12c; individual replicates; listed as WEL028
LYN A = LYN A (Homo sapiens, UniProt P07948); experiment: SelectScreen kinase assay
Procedure: as §1

MAPKAPK5 (PRAK) = target: T1, MAPKAPK5 (PRAK) (Homo sapiens, UniProt Q8IW41); experiment: SelectScreen kinase assay
T1 sequence (Q8IW41 1-473): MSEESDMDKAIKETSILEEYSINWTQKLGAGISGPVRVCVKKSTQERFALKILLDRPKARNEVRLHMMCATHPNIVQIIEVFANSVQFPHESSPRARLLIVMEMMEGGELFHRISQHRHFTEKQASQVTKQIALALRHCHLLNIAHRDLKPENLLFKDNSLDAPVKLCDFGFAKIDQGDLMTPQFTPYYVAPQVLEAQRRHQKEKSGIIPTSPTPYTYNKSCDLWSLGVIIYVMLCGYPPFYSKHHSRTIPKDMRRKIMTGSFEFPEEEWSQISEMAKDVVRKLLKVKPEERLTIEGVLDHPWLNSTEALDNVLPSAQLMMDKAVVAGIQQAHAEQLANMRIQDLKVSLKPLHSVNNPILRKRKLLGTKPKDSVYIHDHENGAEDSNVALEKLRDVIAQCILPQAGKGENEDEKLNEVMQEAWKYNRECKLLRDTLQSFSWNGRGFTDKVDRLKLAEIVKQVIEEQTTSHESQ
Procedure: as §1

MAPK10 (JNK3) = MAPK10 (JNK3) (Homo sapiens, UniProt P53779); experiment: SelectScreen kinase assay
Procedure: as §1

[1] = 1 h, 1 μM WEL028, 1 h preincubation

LYN A, sequence (P07948 whole entry): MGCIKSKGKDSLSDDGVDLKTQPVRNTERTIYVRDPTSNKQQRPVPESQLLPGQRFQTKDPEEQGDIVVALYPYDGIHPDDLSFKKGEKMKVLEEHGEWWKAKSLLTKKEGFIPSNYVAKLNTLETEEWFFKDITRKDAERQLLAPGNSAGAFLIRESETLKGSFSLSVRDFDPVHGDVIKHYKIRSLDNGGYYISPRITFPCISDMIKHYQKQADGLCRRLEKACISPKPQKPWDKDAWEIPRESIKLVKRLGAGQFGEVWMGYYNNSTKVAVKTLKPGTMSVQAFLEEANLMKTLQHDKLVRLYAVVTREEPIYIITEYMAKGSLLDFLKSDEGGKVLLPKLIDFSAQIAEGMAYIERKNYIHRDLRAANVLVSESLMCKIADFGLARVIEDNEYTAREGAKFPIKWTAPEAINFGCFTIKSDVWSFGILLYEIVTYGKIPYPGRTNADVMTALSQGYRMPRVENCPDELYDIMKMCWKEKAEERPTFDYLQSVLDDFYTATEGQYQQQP
STK32B (YANK2), sequence (Q9NY57 whole entry): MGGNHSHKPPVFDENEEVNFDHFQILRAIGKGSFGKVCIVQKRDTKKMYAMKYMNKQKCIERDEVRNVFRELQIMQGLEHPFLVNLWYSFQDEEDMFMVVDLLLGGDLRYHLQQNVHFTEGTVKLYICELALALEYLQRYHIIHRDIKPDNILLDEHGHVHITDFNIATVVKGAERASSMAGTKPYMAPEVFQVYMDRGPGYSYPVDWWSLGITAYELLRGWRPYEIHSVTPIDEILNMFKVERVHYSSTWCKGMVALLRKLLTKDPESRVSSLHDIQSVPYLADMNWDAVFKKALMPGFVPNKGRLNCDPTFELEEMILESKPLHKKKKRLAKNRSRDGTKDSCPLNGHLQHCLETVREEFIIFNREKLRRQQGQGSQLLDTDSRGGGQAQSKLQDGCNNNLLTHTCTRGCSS
CDK5 (Inactive), sequence (Q00535 whole entry): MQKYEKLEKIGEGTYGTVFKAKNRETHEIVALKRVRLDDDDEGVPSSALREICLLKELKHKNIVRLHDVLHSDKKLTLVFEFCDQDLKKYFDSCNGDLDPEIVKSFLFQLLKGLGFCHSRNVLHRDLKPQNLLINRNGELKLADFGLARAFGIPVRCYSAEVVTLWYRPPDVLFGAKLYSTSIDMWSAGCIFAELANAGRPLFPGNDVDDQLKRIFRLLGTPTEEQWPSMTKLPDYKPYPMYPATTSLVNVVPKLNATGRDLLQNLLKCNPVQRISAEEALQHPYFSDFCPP
NEK8, sequence (Q86SG6 whole entry): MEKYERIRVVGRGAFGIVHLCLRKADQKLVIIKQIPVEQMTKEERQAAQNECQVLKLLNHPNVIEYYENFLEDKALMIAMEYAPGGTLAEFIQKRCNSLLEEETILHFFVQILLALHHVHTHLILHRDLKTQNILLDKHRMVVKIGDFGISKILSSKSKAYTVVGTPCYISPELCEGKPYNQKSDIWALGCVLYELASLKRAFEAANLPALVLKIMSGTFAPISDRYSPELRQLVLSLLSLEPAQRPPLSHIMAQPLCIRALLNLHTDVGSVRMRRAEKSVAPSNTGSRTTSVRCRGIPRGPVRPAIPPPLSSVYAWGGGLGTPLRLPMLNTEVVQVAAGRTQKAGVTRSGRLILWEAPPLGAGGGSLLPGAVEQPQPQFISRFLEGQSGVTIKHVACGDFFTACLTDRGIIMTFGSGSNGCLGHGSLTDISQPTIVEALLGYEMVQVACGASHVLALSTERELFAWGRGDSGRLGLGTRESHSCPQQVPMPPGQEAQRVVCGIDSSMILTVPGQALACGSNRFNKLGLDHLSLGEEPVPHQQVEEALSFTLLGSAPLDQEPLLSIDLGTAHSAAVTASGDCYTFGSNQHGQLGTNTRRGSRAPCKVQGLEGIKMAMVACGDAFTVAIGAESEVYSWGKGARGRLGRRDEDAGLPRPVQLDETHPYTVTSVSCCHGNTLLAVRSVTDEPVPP
LCK, sequence (P06239 whole entry): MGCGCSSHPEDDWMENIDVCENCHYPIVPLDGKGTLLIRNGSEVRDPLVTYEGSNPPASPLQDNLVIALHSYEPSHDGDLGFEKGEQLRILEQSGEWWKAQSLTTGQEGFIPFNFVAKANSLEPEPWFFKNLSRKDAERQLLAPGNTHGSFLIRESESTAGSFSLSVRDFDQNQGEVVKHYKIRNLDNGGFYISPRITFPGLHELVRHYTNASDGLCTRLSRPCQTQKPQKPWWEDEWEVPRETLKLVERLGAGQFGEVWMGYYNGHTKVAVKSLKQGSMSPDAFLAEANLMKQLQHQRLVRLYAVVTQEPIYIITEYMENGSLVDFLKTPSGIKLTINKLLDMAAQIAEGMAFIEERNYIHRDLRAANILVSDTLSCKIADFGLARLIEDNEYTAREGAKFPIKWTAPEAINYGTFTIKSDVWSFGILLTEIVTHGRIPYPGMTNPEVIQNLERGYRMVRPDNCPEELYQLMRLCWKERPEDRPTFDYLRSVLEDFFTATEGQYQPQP
PKN2 (PRK2), sequence (Q16513 whole entry): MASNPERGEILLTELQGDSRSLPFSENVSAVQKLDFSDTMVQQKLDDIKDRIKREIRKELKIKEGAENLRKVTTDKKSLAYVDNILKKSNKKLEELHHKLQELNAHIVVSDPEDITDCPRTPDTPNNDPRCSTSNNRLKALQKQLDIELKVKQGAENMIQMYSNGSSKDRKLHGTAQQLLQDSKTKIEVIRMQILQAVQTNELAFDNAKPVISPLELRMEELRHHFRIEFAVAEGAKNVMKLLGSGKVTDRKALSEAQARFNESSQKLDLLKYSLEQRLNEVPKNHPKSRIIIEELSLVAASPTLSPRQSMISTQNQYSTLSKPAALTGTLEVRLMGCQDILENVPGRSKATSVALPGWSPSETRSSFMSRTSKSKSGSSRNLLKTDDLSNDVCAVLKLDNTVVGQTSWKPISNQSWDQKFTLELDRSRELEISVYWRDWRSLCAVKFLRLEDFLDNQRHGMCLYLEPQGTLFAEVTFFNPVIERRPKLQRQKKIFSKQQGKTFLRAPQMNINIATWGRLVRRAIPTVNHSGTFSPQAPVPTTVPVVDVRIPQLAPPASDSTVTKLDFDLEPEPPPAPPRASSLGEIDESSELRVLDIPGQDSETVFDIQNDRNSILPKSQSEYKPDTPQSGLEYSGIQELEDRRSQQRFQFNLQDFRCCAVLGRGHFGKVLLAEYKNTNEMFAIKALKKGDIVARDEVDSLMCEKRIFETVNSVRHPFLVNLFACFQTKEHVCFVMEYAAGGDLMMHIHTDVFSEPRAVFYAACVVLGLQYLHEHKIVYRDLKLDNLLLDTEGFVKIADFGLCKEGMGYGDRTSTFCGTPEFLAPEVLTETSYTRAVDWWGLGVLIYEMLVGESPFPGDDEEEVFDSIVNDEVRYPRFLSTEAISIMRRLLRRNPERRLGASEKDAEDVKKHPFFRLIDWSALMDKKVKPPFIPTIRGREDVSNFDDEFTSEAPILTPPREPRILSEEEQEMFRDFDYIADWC
HCK, sequence (P08631 whole entry): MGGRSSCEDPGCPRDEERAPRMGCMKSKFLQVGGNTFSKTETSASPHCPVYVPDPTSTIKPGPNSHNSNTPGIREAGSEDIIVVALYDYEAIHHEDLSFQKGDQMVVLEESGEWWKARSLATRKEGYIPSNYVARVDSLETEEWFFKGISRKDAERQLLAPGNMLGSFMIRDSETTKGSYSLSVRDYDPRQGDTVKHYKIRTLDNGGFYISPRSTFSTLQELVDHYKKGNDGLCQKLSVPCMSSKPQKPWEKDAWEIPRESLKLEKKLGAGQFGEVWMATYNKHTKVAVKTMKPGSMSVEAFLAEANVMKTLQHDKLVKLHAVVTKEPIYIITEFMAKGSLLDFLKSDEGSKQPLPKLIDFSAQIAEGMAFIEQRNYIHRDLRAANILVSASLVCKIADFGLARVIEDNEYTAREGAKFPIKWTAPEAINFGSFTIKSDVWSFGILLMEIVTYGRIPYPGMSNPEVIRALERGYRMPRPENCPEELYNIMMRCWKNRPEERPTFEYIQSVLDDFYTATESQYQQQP
CLK1, sequence (P49759 whole entry): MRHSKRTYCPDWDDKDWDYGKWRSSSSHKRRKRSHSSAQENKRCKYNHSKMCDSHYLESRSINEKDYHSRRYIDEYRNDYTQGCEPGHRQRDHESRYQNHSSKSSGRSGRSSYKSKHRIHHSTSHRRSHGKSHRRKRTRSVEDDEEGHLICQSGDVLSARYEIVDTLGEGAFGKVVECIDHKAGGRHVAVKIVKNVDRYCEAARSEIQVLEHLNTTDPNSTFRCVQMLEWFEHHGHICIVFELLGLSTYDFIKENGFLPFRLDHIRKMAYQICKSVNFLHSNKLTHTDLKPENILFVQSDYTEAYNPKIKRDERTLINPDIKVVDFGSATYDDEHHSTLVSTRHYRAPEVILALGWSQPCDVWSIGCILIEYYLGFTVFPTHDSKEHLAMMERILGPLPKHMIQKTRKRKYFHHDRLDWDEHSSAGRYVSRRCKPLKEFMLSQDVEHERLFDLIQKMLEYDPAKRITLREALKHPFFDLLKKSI
MST4, sequence (Q9P289 whole entry): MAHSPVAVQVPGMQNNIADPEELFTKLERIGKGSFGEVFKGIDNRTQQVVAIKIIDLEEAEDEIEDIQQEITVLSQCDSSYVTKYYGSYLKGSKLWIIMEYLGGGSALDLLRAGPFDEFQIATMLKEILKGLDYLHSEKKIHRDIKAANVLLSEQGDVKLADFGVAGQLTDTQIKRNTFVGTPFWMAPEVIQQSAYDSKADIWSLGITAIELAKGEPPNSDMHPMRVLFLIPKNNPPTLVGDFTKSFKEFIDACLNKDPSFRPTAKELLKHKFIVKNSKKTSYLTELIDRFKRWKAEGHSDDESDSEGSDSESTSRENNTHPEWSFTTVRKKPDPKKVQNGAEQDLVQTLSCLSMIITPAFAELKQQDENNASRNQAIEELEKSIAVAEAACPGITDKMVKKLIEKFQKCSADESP

C#CCOc1ccc(Nc2ncc(Cl)c(Nc3ccccc3NC(=O)C=C)n2)c(OC)c1 [Compound 6]
inhibition at 1 µM (LCK; [1]): 5% | Inhibition at 1 µM (%) (LCK; LCK, 1 µM, ZLYTE, ATP Km app, listed as WEL028, 1 µM): 6% | inhibition at 1 µM (LCK; read-out: Inhibition at 1 µM (%), LCK, 1 µM, ZLYTE, ATP Km app): 4% | inhibition at 1 µM (CDK5 (Inactive); [1]): 3% | Inhibition at 1 µM (%) (CDK5 (Inactive); CDK5 (Inactive), 1 µM, LanthaScreen Binding, listed as WEL028, 1 µM): 2% | inhibition at 1 µM (CDK5 (Inactive); read-out: Inhibition at 1 µM (%), CDK5 (Inactive), 1 µM, LanthaScreen Binding): 3% | inhibition at 1 µM (AMPK A2/B1/G1; [1]): 4% | Inhibition at 1 µM (%) (AMPK A2/B1/G1; AMPK A2/B1/G1, 1 µM, ZLYTE, ATP Km app): -2% | inhibition at 1 µM (PAK1; 1 h): 8% | inhibition at 1 µM (PAK1; read-out: Inhibition at 1 µM (%)): 8% | inhibition at 1 µM (MAP3K9 (MLK1); [1]): -11% | Inhibition at 1 µM (%) (MAP3K9 (MLK1); MAP3K9 (MLK1), 1 µM, ZLYTE, ATP Km app): -21% | inhibition at 1 µM (CDC42 BPB (MRCKB)): 6% | inhibition at 1 µM (FES (FPS); [1]): 15% | Inhibition at 1 µM (%) (FES (FPS); FES (FPS), 1 µM, ZLYTE, ATP Km app, listed as WEL028, 1 µM): 17% | inhibition at 1 µM (FES (FPS); read-out: Inhibition at 1 µM (%), FES (FPS), 1 µM, ZLYTE, ATP Km app): 12% | inhibition at 1 µM (NEK8; [1]): 7% | Inhibition at 1 µM (%) (NEK8; NEK8, 1 µM, LanthaScreen Binding, listed as WEL028, 1 µM): 2% and 12% | inhibition at 1 µM (CLK1; [1]): 5% | Inhibition at 1 µM (%) (CLK1; CLK1, 1 µM, ZLYTE, ATP Km app, listed as WEL028, 1 µM): 1% and 8% | inhibition at 1 µM (MST4; [1]): 19% | Inhibition at 1 µM (%) (MST4; MST4, 1 µM, ZLYTE, ATP Km app, listed as WEL028, 1 µM): 18% | inhibition at 1 µM (MST4; read-out: Inhibition at 1 µM (%), MST4, 1 µM, ZLYTE, ATP Km app): 21% | Inhibition at 1 µM (%) (STK32B (YANK2); 1 µM, LanthaScreen Binding, listed as WEL028, 1 µM): 6% | inhibition at 1 µM (STK32B (YANK2); [1]): 7% | inhibition at 1 µM (STK32B (YANK2); read-out: Inhibition at 1 µM (%), 1 µM, LanthaScreen Binding): 7% | inhibition at 1 µM (PKN2 (PRK2); [1]): 8% | Inhibition at 1 µM (%) (PKN2 (PRK2); PKN2 (PRK2), 1 µM, LanthaScreen Binding, listed as WEL028, 1 µM): 9% | inhibition at 1 µM (PKN2 (PRK2); read-out: Inhibition at 1 µM (%), PKN2 (PRK2), 1 µM, LanthaScreen Binding): 6% | inhibition at 1 µM (ACVRL1 (ALK1); [1]): 6% | Inhibition at 1 µM (%) (ACVRL1 (ALK1); ACVRL1 (ALK1), 1 µM, LanthaScreen Binding): 12% | Inhibition at 1 µM (%) (STK25 (YSK1); 1 µM, ZLYTE, ATP Km app): 15% | inhibition at 1 µM (STK25 (YSK1); [1]): 5% | inhibition at 1 µM (HCK; [1]): 6% | Inhibition at 1 µM (%) (HCK; HCK, 1 µM, ZLYTE, ATP Km app, listed as WEL028, 1 µM): 7% | inhibition at 1 µM (HCK; read-out: Inhibition at 1 µM (%), HCK, 1 µM, ZLYTE, ATP Km app): 4% | CD11b-positive cells (%) (FES^S700C HL-60 cells): 93.1005% and 92.0572% and 93.2155% | inhibition at 1 µM (LYN A; [1]): 5% | Inhibition at 1 µM (%) (LYN A; LYN A, 1 µM, ZLYTE, ATP Km app, listed as WEL028, 1 µM): 6% | inhibition at 1 µM (LYN A; read-out: Inhibition at 1 µM (%), LYN A, 1 µM, ZLYTE, ATP Km app): 5% | IC50 (MAPKAPK5 (PRAK)): 501 nM | inhibition at 1 µM (MAPKAPK5 (PRAK); [1]): 66% | inhibition at 10 µM (MAPKAPK5 (PRAK); 1 h, log[inhibitor] (M) -5.00, ZLYTE, ATP Km app): 95% | inhibition at 3.31 µM (MAPKAPK5 (PRAK); 1 h, log[inhibitor] (M) -5.48, ZLYTE, ATP Km app): 94% | inhibition at 1.12 µM (MAPKAPK5 (PRAK); 1 h, log[inhibitor] (M) -5.95, ZLYTE, ATP Km app): 76% | inhibition at 0.372 µM (MAPKAPK5 (PRAK); 1 h, log[inhibitor] (M) -6.43, ZLYTE, ATP Km app): 36% | inhibition at 0.04074 µM (MAPKAPK5 (PRAK); 1 h, log[inhibitor] (M) -7.39, ZLYTE, ATP Km app): 13% | inhibition at 0.004571 µM (MAPKAPK5 (PRAK); 1 h, log[inhibitor] (M) -[…], ZLYTE, ATP Km app): 4% | Apparent fold selectivity (MAPKAPK5 (PRAK); IC50 on that kinase divided by IC50 on FES^S700C): 112 fold | Inhibition at 1 µM (%) (MAPKAPK5 (PRAK); MAPKAPK5 (PRAK), 1 µM, ZLYTE, ATP Km app, listed as WEL028, 1 µM): 70% | inhibition at 1 µM (MAPKAPK5 (PRAK); read-out: Inhibition at 1 µM (%), MAPKAPK5 (PRAK), 1 µM, ZLYTE, ATP Km app): 62% | Inhibition (%) (MAPK10 (JNK3); 1 μM WEL028, 1 h preincubation): -7% | Inhibition at 1 µM (%) (MAPK10 (JNK3); MAPK10 (JNK3), 1 µM, ZLYTE, ATP 100): -14%
